From patent publication US20070129433A1, “Diphenylamine derivatives” (priority 2003, published 2007)

Experiments:
Human LDL = experiment: Antioxidant effect: inhibition of copper-induced oxidation of human LDL (fluorescence); format: biochemical; settings: human LDL 120 μg/ml + CuCl2, 37° C., fluorescence difference between 2 h and 24 h readings; from three concentrations
Experimental: Human LDLs placed in aqueous solution in the presence of cupric ions, become spontaneously oxidized on their protein component, apolipoprotein-B. This oxidation makes the particle fluorescent, which is exploited to measure a pharmacological effect.
The reactions and measurements are performed in black 96-well plates. 10 μl of a solution of the test product dissolved in dimethyl sulfoxide are first mixed with 170 μl of a solution of human LDL at a concentration of 120 μg/ml and 20 μl of 100 μM CuCl2. After stirring, the mixture is incubated for 2 hours at 37° C., and a first fluorescence reading is taken (excitation at 360 nm, reading at 460 nm). The mixture is then incubated for a further 22 hours, to take a second reading under the same conditions. The difference is proportionately smaller the greater the anti-oxidant power of the test product. Probucol is used as reference product at a concentration of 10 μM.
The concentrations that inhibit 50% (IC50) of the oxidation are prepared from three concentrations of the test product. They are given in Table I below for some of the compounds given as examples below.

fatty Zucker rats = experiment: Hypotriglyceridaemiant activity in fatty Zucker rats; format: in vivo, rat; settings: 9-week-old male Zucker rats, 300 mg/kg/day p.o. for eight days, plasma after fasting four hours
Experimental: The compound of Example 2 was tested on fatty Zucker rats (Zucker L. M. et al., 1961, Fatty a new mutation in the rat, J. Hered., 52: 275278). This animal is hyperphagic, obese and hyperinsulinaemic. It develops resistance to insulin, it is hyperlipidaemic, and has a large hypertriglyceridaemia. 9-week-old male Zucker rats were treated for eight days with this compound at a dose of 300 mg/kg/day p.o. After fasting for four hours, a blood sample is taken to recover the plasma. Under these conditions, the compound of Example 2 induces a large reduction in triglycerides, of 55% (p<0.01), and the insulinaemia is down by 59% (p<0.05).

Compound | IC50 (Human LDL) | reduction in triglycerides (fatty Zucker rats; p<0.01) | insulinaemia down by (fatty Zucker rats; p<0.05)
COc1ccc(Nc2ccc(C(N)=O)cc2)cc1 [Example 42] | 18.6 µM |  | 
COc1ccc(Nc2ccc(C(=O)O)cc2)cc1 [Example 2, 4-[(4-Methoxyphenyl)amino]benzoic acid] | 10.6 µM | 55% | 59%
COc1ccc(Nc2ccc(CO)cc2)cc1 [Example 8, {4-[(4-Methoxyphenyl)amino]phenyl}methanol] | 5.8 µM |  | 
COc1ccc(Nc2ccc(C#N)cc2)cc1 [Example 6, 4-[(4-Methoxyphenyl)amino]benzonitrile] | 8.5 µM |  | 

Further lines, with some results ahead:

IC50 (Human LDL) | Compound | reduction in triglycerides (fatty Zucker rats; p<0.01) | insulinaemia down by (fatty Zucker rats; p<0.05)
11.1 µM | COc1ccc(Nc2ccc(CC(=O)O)cc2)cc1 [Example 17] |  | 
9.7 µM | O=C(O)c1ccc(Nc2ccc([N+](=O)[O-])cc2)cc1 [Example 13] |  | 
